Values joined by “and” are separate entries in the source; they are usually repeats but may differ in a detail not shown here. Equal values may be shown once. Inconclusive results and toxic doses are left out.
System: Gardner 6C3HED lymphosarcoma ip, C3AKF1 mice, survival T/C
Assay: NCI In Vivo Anticancer Drug Screen. Data for tumor model Lymphosarcoma Gardner 6C3HED (intraperitoneal) in C3AKF1 (CHKRF1) mice
Conditions: endpoint: survival time, mean or median, schedule: Q01DX010 (ip), higher = longer survival
Procedure: The antitumor activity of compounds was measured in mice bearing transplantable tumors. Survival or tumor size were measured and the results are expressed as the measurement made in the treated group (T) divided by the measurement made in the vehicle treated control group (C). The tumor model used in this assay is Lymphosarcoma Gardner 6C3HED (intraperitoneal) in C3AKF1 (CHKRF1) mice

[1] = dose: 62.5 mg/kg/injection, vehicle: saline
[2] = dose: 125.0 mg/kg/injection, vehicle: saline
[3] = dose: 250.0 mg/kg/injection, vehicle: saline
[4] = dose: 500.0 mg/kg/injection, vehicle: saline
[5] = dose: 18.8 mg/kg/injection, vehicle: saline
[6] = dose: 37.5 mg/kg/injection, vehicle: saline
[7] = dose: 75.0 mg/kg/injection, vehicle: saline
[8] = dose: 150.0 mg/kg/injection, vehicle: saline
[9] = dose: 6.0 mg/kg/injection, vehicle: saline
[10] = dose: 8.0 mg/kg/injection, vehicle: saline
[11] = dose: 12.0 mg/kg/injection, vehicle: saline
[12] = dose: 2.0 mg/kg/injection, vehicle: other
[13] = dose: 4.0 mg/kg/injection, vehicle: other
[14] = dose: 2.0 mg/kg/injection, vehicle: saline
[15] = dose: 4.0 mg/kg/injection, vehicle: saline
[16] = dose: 16.0 mg/kg/injection, vehicle: saline
[17] = dose: 0.5 mg/kg/injection, vehicle: saline
[18] = dose: 1.0 mg/kg/injection, vehicle: saline
[19] = dose: 12.5 mg/kg/injection, vehicle: saline
[20] = dose: 25.0 mg/kg/injection, vehicle: saline
[21] = dose: 50.0 mg/kg/injection, vehicle: saline
[22] = dose: 32.0 mg/kg/injection, vehicle: saline
[23] = dose: 64.0 mg/kg/injection, vehicle: saline
[24] = dose: 5.0 mg/kg/injection, vehicle: saline
[25] = dose: 10.0 mg/kg/injection, vehicle: saline
[26] = dose: 20.0 mg/kg/injection, vehicle: saline
[27] = dose: 6.25 mg/kg/injection, vehicle: saline
[28] = dose: 40.0 mg/kg/injection, vehicle: saline
[29] = dose: 60.0 mg/kg/injection, vehicle: saline
[30] = dose: 80.0 mg/kg/injection, vehicle: saline
[31] = dose: 120.0 mg/kg/injection, vehicle: saline

With `O=c1cn[nH]c(=O)[nH]1` the T/C [1] was 100 % of control and 104 % of control, the T/C [2] was 104 % of control and the T/C [3] was 90 % of control and 95 % of control. For the same molecule, the T/C [4] was 90 % of control.

In the case of `CS(=O)(=O)OCCCl`, the T/C [5] is reported as 100 % of control, the T/C [6] is reported as 100 % of control and the T/C [7] is reported as 95 % of control. For the same molecule, the T/C [8] was 100 % of control.

`O=C(Nc1ccc(C2=NCCN2)cc1)c1ccc(C(=O)Nc2ccc(C3=NCCN3)cc2)c([N+](=O)[O-])c1` was tested, and the T/C [9] was 218 % of control and 272 % of control, the T/C [10] was 300 % of control and the T/C [11] was 268 % of control and 300 % of control. For the same molecule, the T/C (dose: 18.0 mg/kg/injection, vehicle: saline) was 163 % of control and 259 % of control.

For `CCn1cnc2c(=S)nc[nH]c21`, the T/C (dose: 15.6 mg/kg/injection, vehicle: saline) was 91 % of control and 104 % of control, the T/C (dose: 31.3 mg/kg/injection, vehicle: saline) was 87 % of control and 89 % of control and 104 % of control and the T/C [1] was 114 % of control. For the same molecule, the T/C [2] was 87 % of control and 104 % of control.

With `O=C(Nc1ccc(C2=NCCCN2)cc1)c1ccc(C(=O)Nc2ccc(C3=NCCCN3)cc2)cc1` the T/C (dose: 1.0 mg/kg/injection, vehicle: other) was 227 % of control and 241 % of control, the T/C [12] was 300 % of control and the T/C [13] was 86 % of control.

For `N=C(N)c1ccc(Nc2ccc(C(=N)N)cc2)cc1`, the T/C (dose: 3.0 mg/kg/injection, vehicle: saline) was 103 % of control, the T/C [9] was 96 % of control and the T/C [11] was 96 % of control.

`O=C(Nc1ccc(NC2=NCCN2)cc1)c1ccc(C(=O)Nc2ccc(NC3=NCCN3)cc2)cc1` was tested, and the T/C [14] was 180 % of control, the T/C [15] was 195 % of control and 265 % of control and the T/C [10] was 190 % of control. For the same molecule, the T/C [16] was 115 % of control.

For `O=C(Nc1ccc(C2=NCCCN2)cc1)c1ccc(NC(=O)c2ccc(C3=NCCCN3)cc2)cc1`, the T/C [12] was 183 % of control and 250 % of control, the T/C [13] was 220 % of control and 300 % of control and the T/C (dose: 8.0 mg/kg/injection, vehicle: other) was 177 % of control and 187 % of control.

In the case of `C1CN1c1nc(N2CC2)nc(N2CC2)n1`, the T/C (dose: 0.13 mg/kg/injection, vehicle: saline) is reported as 100 % of control and 105 % of control, the T/C (dose: 0.25 mg/kg/injection, vehicle: saline) is reported as 110 % of control and 115 % of control and the T/C [17] is reported as 120 % of control. For the same molecule, the T/C [18] was 95 % of control and the T/C (dose: 1.5 mg/kg/injection, vehicle: saline) was 110 % of control.

In the case of `NC(=O)N(CCCl)N=O`, the T/C [17] is reported as 150 % of control and 204 % of control, the T/C [18] is reported as 250 % of control and 254 % of control and the T/C [15] is reported as 86 % of control.

In the case of `NC(Cc1c[nH]c2ccc(N(CCCl)CCCl)cc12)C(=O)O` (stereo not given), the T/C [17] is reported as 159 % of control, the T/C [18] is reported as 159 % of control and 181 % of control and the T/C [14] is reported as 195 % of control and 231 % of control.

For `CCN(CC)CCNc1ccc(C)c2sc3ccccc3c(=O)c12`, the T/C [19] was 100 % of control, the T/C [20] was 114 % of control and the T/C [21] was 91 % of control and 114 % of control.

For `c1ccc(CNc2ncnc3[nH]ncc23)cc1`, the T/C [10] was 100 % of control and 119 % of control, the T/C [16] was 104 % of control and 105 % of control and the T/C [22] was 90 % of control and 95 % of control. For the same molecule, the T/C [23] was 90 % of control and 95 % of control.

In the case of `COS(C)(=O)=O`, the T/C [19] is reported as 111 % of control, the T/C [21] is reported as 300 % of control and the T/C (dose: 100.0 mg/kg/injection, vehicle: saline) is reported as 176 % of control.

For `C[C@@H]1C[C@@H]([C@H](O)CC2CC(=O)NC(=O)C2)C(=O)[C@@H](C)C1`, the T/C [24] was 95 % of control and 104 % of control, the T/C [25] was 90 % of control and 100 % of control and the T/C [26] was 91 % of control and 118 % of control.

With `Oc1cc(CN(CCCl)CCCl)c(O)cc1CN(CCCl)CCCl` the T/C (dose: 0.63 mg/kg/injection, vehicle: saline) was 113 % of control, the T/C (dose: 2.5 mg/kg/injection, vehicle: saline) was 168 % of control and the T/C [24] was 91 % of control and 122 % of control.

`CCCNc1ncnc2[nH]ncc12` was tested, and the T/C (dose: 3.13 mg/kg/injection, vehicle: saline) was 86 % of control and 90 % of control, the T/C [27] was 90 % of control and the T/C [19] was 90 % of control and 95 % of control.

`C=CC(CN1CC1)OC(C)=O` (stereo not given) was tested, and the T/C [14] was 92 % of control.

With `CN(N=O)C(=O)NC(C=O)C(O)C(O)C(O)CO` (stereo not given) the T/C [28] was 300 % of control, the T/C [29] was 300 % of control and the T/C (dose: 135.0 mg/kg/injection, vehicle: saline) was 95 % of control and 100 % of control.

With `O=C1C(NC(=O)C2CCCCC2)=C(N2CC2)C(=O)C(NC(=O)C2CCCCC2)=C1N1CC1` the T/C [20] was 92 % of control and the T/C [21] was 92 % of control.

In the case of `CN(C)c1ccc(/C=C/c2ccnc3ccccc23)cc1`, the T/C [24] is reported as 96 % of control, the T/C [25] is reported as 92 % of control and the T/C [26] is reported as 92 % of control.

`CC(=O)N(C)C` was tested, and the T/C [1] was 86 % of control and 90 % of control, the T/C [2] was 90 % of control and 95 % of control and the T/C [3] was 95 % of control and 100 % of control. The T/C [4] was 100 % of control.

For `CN(C)c1nc(N(C)C)nc(N(C)C)n1`, the T/C [5] was 104 % of control, the T/C [6] was 104 % of control and the T/C [7] was 95 % of control and 100 % of control. For the same molecule, the T/C [8] was 100 % of control and 104 % of control.

In the case of `CCN(CC)c1ccc2cc3ccc(=[N+](CC)CC)cc-3oc2c1`, the T/C [18] is reported as 100 % of control and 109 % of control, the T/C [14] is reported as 100 % of control and 122 % of control and the T/C [15] is reported as 100 % of control and 104 % of control. The T/C [10] was 95 % of control and 100 % of control.

For `OCC1OC(n2cnc3c(=S)nc[nH]c32)C(O)C1O` (stereo not given), the T/C [26] was 90 % of control and 95 % of control, the T/C [28] was 86 % of control and the T/C [30] was 90 % of control. For the same molecule, the T/C (dose: 160.0 mg/kg/injection, vehicle: saline) was 86 % of control and 90 % of control.

`Nc1nc2n[nH]nc2c(=O)[nH]1` was tested, and the T/C (dose: 25.0 mg/kg/injection, vehicle: alkali diluted with saline) was 115 % of control and the T/C (dose: 50.0 mg/kg/injection, vehicle: alkali diluted with saline) was 100 % of control and 120 % of control.

In the case of `O=C(Nc1ccc(C2=NCCN2)cc1)c1cccc(C(=O)Nc2ccc(C3=NCCN3)cc2)c1`, the T/C [10] is reported as 183 % of control and 200 % of control, the T/C [16] is reported as 272 % of control and 300 % of control and the T/C [22] is reported as 279 % of control and 300 % of control. For the same molecule, the T/C [23] was 279 % of control and 290 % of control.

For `CN(C)c1ccc(Nc2c3ccccc3nc3ccccc23)cc1`, the T/C (dose: 36.0 mg/kg/injection, vehicle: saline) was 107 % of control, the T/C (dose: 54.0 mg/kg/injection, vehicle: saline) was 185 % of control and the T/C [30] was 240 % of control. For the same molecule, the T/C [31] was 214 % of control.

With `O=NN(CCCl)C(=O)NCCCl` the T/C [27] was 300 % of control and the T/C (dose: 16.25 mg/kg/injection, vehicle: saline) was 257 % of control.

In the case of `N#CCSc1ncnc2nc[nH]c12`, the T/C (dose: 15.0 mg/kg/injection, vehicle: saline) is reported as 100 % of control and 111 % of control, the T/C (dose: 30.0 mg/kg/injection, vehicle: saline) is reported as 100 % of control and the T/C [29] is reported as 95 % of control and 114 % of control. The T/C [31] was 92 % of control and 95 % of control.

Source: PubChem BioAssay AID232 (DTP/NCI, 2004)
